Results: patent publication US9920022B2, “Small molecule compound and synthesizing method and uses thereof” (TECHNODERMA MEDICINES PTE LTD., priority 2014, dated 2018)

Experiments:
Thyroid Receptor TRβ = biological target: T1, Thyroid Receptor TRβ (Homo sapiens, UniProt P10828); experiment: Thyroid Receptor TRβ Agonist Assay (luciferase reporter gene, co-transfected HEK-293 cells); type: cell-based; conditions: TRβ plasmid + thyroid hormone response element luciferase reporter in HEK-293 cells; 24 hours; maximum concentration 10 μM
T1 construct: expressed in transfected cells; host or cells: HEK-293
T1 sequence (P10828 1-461): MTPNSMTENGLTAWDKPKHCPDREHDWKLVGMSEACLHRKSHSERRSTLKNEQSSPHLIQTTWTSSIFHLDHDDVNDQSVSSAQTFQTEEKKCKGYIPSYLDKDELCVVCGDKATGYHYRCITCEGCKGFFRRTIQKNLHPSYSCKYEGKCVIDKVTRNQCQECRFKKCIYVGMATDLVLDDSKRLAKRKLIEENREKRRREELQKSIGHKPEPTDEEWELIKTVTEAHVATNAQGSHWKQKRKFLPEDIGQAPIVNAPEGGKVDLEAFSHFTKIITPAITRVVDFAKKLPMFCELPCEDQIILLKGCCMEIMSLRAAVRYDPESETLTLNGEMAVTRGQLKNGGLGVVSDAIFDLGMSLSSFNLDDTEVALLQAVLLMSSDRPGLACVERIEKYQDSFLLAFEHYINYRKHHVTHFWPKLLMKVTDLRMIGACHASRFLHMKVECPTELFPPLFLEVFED
Procedure: B: Thyroid Receptor TRβ Agonist Assay
(2) The residual poly-D-lysine is removed. On the 96-well plate, HEK-293 cells are plated at a density of 4.0×10^4 cells/well in DMEM medium containing 10% FBS. The cells are cultured at 37° C. overnight.
(1) The culture medium is removed 2 hours before transfection. 100 μl of DMEM culture medium containing 10% FBS treated by activated carbon is added to each well, and incubated at 37° C. for 2 hours.
3. For each reaction system, 50 ng thyroid receptor (TRβ) plasmid DNA and 50 ng luciferase reporter gene plasmid DNA of thyroid hormone response element are added. Mixing it completely by gentle pipeting.
4. 0.2 μl of transfection reagent X-tremeGENE HP is added to the diluted co-transfected DNA mixture. Mixing it completely by gentle pipeting.
(3) 10 μl of the complex is added to each well in a 96 well plate. Gently shaking the culturing plate to evenly distribute the complex.
(4) The culture is incubated at 37° C. for 24 hours.
(1) Preparation of compound diluent: for each compound, half-log dilutions of each test compound is prepared using DMEM medium containing 10% charcoal stripped FBS (containing 0.1% DMSO), with a maximum concentration of 10 μM of the test compound.
(2) Removing the culture medium and adding the formulated compound diluent (the final DMSO concentration is 0.1%).
(3) For blank control, DMEM medium containing 10% charcoal stripped FBS (containing 0.1% DMSO) is added.
(4) Incubating at 37° C. for 24 hours.
(1) Removing the culture medium, adding 40 μl phosphate (PBS) buffer to each well.
(2) Adding 40 μl Bright-Glo reagent to each well and vortexing for 30 seconds, followed by incubation in dark for 2 min.
(3) Transferring 70 μl cell lysate from each well into a white polystyrene 96-well plate.
(4) Detecting the Luciferase signal intensity by Envision.

C3H mice = experiment: Mouse experiment: hair growth after topical administration; type: in vivo; conditions: for day of topical administration on which the skin became black / day on which hair growth was observed: 20 μl/mouse topical twice/day
Procedure: A. Mouse Experiment: TMI-105795 is Used as Test Compound in the Experiment
The tested compound (TMI-105795) is sub-packaged into dose volume and kept at −20° C. before use. All tested compounds (including solvents) are labeled as TDM-001-1, TDM-001-2, TDM-001-3 and TDM-001-4.
Female C3H mice (35-39 days after birth at arrival) were obtained from Beijing Vital River Laboratory Animal Technology Co., Ltd. The mice were selected for inclusion based upon acceptable clinical condition and body weight. Animals were housed randomly 5 mice per cage before grouping. All mice were kept at least one week in acclimation in the animal facility prior to any procedures. Animal identification number was labeled on the tail and cage tag respectively.
The test compound is TMI-105795 (solvent is polyethylene glycol/ethanol (30/70)), it is sub-packaged into dose volume and kept in −20° C. before use. It was topically administered together with solvent twice every day at 9:30 am and 4:00 pm.
Hair growth grade, peripheral hair growth, scaling, erythema will be scored on Monday, Wednesday and Friday from the beginning on the Day 1 to the termination of the experiment.
All experimental mice were carefully dipped with the hair on the back of the rear leg with shaver. Care must be taken to avoid any irritation to the skin on the back of mouse. Skin color on the back was confirmed again. All mice must show pink skin, any mice that show signs of skin abrasion were excluded from the experiment. Mice were randomly divided into 5 groups and housed individually.
Body weight of each mouse is recorded before administration every morning. 20 μl corresponding solution is aspirated by pipette and applied to shaving area on the back of the mouse, and then the drug solution is uniformly applied to the back between rear legs with tips, about a region with a diameter of 1 cm. It is ensured that the administered region is the same one every day, and the mouse is put into the case after drying of liquid.
All mice are scored on Monday Wednesday and Friday each week from the beginning on the Day 1 to the termination of the study, using the following scoring guidelines:
a. Hair Growth Grade (Administration Area):
0=No color change, or hair growth on the skin
1=Skin color changes uniformly over the administration area from pink to gray/black with no visible hair growth;
2=Appearance of short and sparse hair growth;
3=Full thick hair growth similar to the surrounding normal hair coat.
b. Peripheral Hair Growth (Defined as Hair Growth that is in the Dipped Area, but not in the Administration Area):
0=No color change, or hair growth on the skin;
1=Skin color changes to gray/black with no visible hair growth;
2=Peripheral sparse hair growth;
3=Peripheral thick hair growth.

[1] = all treatment groups, 3 weeks topical administration

| Structure (SMILES) | EC50 (Thyroid Receptor TRβ) [µM] | also measured |
| --- | --- | --- |
| O=C(NO)C(=O)Nc1cc(Cl)c(Oc2ccc(O)c(Cc3ccc(Cl)c(Cl)c3)c2)c(Cl)c1 [TMI-105905, N1-(3,5-dichloro-4-(3-(3,4-dichlorobenzyl)-4-hydroxyphenoxy)phenyl)-N2-oxalyl hydroxylamine] | 0.4 |  |
| Cc1ccc(Cc2cc(Oc3c(Cl)cc(NC(=O)C(=O)NO)cc3Cl)ccc2O)cc1 [TMI-105903, N1-(3,5-dichloro-4-(3-(4-methylbenzyl)-4-hydroxyphenoxy)phenyl)-N2-oxalyl hydroxylamine] | 0.136 |  |
| O=C(NO)C(=O)Nc1cc(Cl)c(Oc2ccc(O)c(CN3Cc4ccccc4C3)c2)c(Cl)c1 [TMI-105961, N1-(3,5-dichloro-4-(4-hydroxy-3-(isoindolin-2-methyl)phenoxy)phenyl)-N2-oxalyl hydroxylamine] | 9.24 |  |
| O=C(NO)C(=O)Nc1cc(Cl)c(Oc2ccc(O)c(CN3CCC(O)CC3)c2)c(Cl)c1 [TMI-105956] | 6.52 |  |
| CN1CCN(Cc2cc(Oc3c(Cl)cc(NC(=O)C(=O)NO)cc3Cl)ccc2O)CC1 [TMI-105957, N1-(3,5-dichloro-4-(4-hydroxy-3-(4-methylpiperazine-1-methyl)phenoxy)phenyl)-N2-oxalyl hydroxylamine] | 8.76 |  |
| O=C(NO)C(=O)Nc1cc(Cl)c(Oc2ccc(O)c(Cc3ccc(F)cc3)c2)c(Cl)c1 [TMI-105795, N1-(3,5-dichloro-4-(3-(4-fluorobenzyl)-4-hydroxyphenoxy)phenyl)-N2-oxalyl hydroxylamine] | 0.179 | day of topical administration on which the skin became black (C3H mice; TDM-001-2 group, 0.005% (w/v)): 12 days; day on which hair growth was observed (C3H mice; TDM-001-2 group, 0.005% (w/v)): 16 days; day of topical administration on which the skin became black (C3H mice; TDM-001-3 group, 0.01% (w/v)): 2 days; day on which hair growth was observed (C3H mice; TDM-001-3 group, 0.01% (w/v)): 6 days; day of topical administration on which the skin became black (C3H mice; TDM-001-4 group, 0.05% (w/v)): 2 days; day on which hair growth was observed (C3H mice; TDM-001-4 group, 0.05% (w/v)): 8 days; body weight change during administration (C3H mice; all groups, 3 weeks topical administration): would not induce the loss of animal body weight; erythema of the skin (C3H mice; [1]): not observed; scaling of the skin (C3H mice; [1]): not observed; promoting hair growth compared with solvent group (C3H mice; female C3H mice, topical, twice/day, 5 days/week for 3 weeks, every dosing amount (0.005%, 0.01%, 0.05% w/v)): positive result in promoting hair growth; dose dependence of hair growth effect (C3H mice; female C3H mice, topical, 0.005%, 0.01%, 0.05% (w/v)): dose dependent effect is observed |
| O=C(NO)C(=O)Nc1cc(Cl)c(Oc2ccc(O)c(Cc3ccccc3F)c2)c(Cl)c1 [TMI-105966] | 0.0611 |  |
| CS(=O)(=O)c1ccc(Cc2cc(Oc3c(Cl)cc(NC(=O)C(=O)NO)cc3Cl)ccc2O)cc1 [TMI-105902, N1-(3,5-dichloro-4-(3-(4-methylsulphonylbenzyl)-4-hydroxyphenoxy)phenyl)-N2-oxalyl hydroxylamine] | 0.25 |  |
| O=C(NO)C(=O)Nc1cc(Cl)c(Oc2ccc(O)c(CN3CCOCC3)c2)c(Cl)c1 [TMI-105906, N1-(3,5-dichloro-4-(4-hydroxy-3-(morpholinomethyl)phenoxy)phenyl)-N2-oxalyl hydroxylamine] | 0.925 |  |
| O=C1CN(Cc2cc(Oc3c(Cl)cc(NC(=O)C(=O)NO)cc3Cl)ccc2O)CCN1 [TMI-105963] | 9.58 |  |
| O=C(NO)C(=O)Nc1cc(Cl)c(Oc2ccc(O)c(CN3CCc4ccccc4C3)c2)c(Cl)c1 [TMI-105962, N1-(3,5-dichloro-4-(3-(3,4-dihydroisoquinolin-2(1H)-methyl)-4-hydroxyphenoxy)phenyl)-N2-oxalyl hydroxylamine] | 3.72 |  |
| O=C(NO)C(=O)Nc1cc(Cl)c(Oc2ccc(O)c(CN3CCC(Cc4ccccc4)CC3)c2)c(Cl)c1 [TMI-105959] | 0.617 |  |
| O=C(NO)C(=O)Nc1cc(Cl)c(Oc2ccc(O)c(Cc3cccc(F)c3)c2)c(Cl)c1 [TMI-105965] | 0.096 |  |
| O=C(NO)C(=O)Nc1cc(Cl)c(Oc2ccc(O)c(CN3CCCC3)c2)c(Cl)c1 [TMI-105958, N1-(3,5-dichloro-4-(4-hydroxy-3-(methylpyrrolidin-1-methyl)phenoxy)phenyl)-N2-oxalyl hydroxylamine] | 9.7 |  |
